In one test the target is Pim-1 (Homo sapiens (Human), UniProt P11309). The test can be described thus: Pim enzyme assay (HTRF, phosphorylation of biotinylated-BAD (S112) peptide), Pim-1. The test is classed as biochemical. From the text:
(§1) Full-length human cDNAs encoding Pim-1 (MGC ID 3913552) or Pim-2 (IMAGE ID 5092935) were purchased from Invitrogen, Carlsbad, Calif. These cDNAs were used as templates in PCR reactions to produce full-length DNA clones of the PIMs. Oligonucleotide PCR primers for Pim-1 were 5′-[…]-3′ and 5′-[…]-3′. Oligonucleotide PCR primers for Pim-2 were 5′-[…]-3′ and 5′-[…]-3′. PCR products were digested with BclI and EcoRI for Pim-1 and BamHI and EcoRI for Pim-2 and ligated into a modified baculovirus transfer vector (pFastBac 1) cleaved with BamHI and EcoRI. For bacterial expression, the same cleaved PCR products encoding Pim-1 or Pim-2 were ligated into a modified E. coli expression vector pET28(a) cleaved with BamHI and EcoRI. Amino-terminal hexahistidine tags followed by a thrombin cleavage site were previously added to the vectors using standard methods of molecular biology. Recombinant baculoviruses expressing Pim-1 or Pim-2 were made using standard methods (Fastbac manual, Invitrogen, Carlsbad, Calif.). Infection of Sf9 cells was done at an m.o.i. of greater than 5 for 24-48 h. Cells were harvested by centrifugation and frozen at −80 C. For E. coli expression, cells carrying pET28-His6-Th-Pim-1 or pET28-His6-Th-Pim-2 were picked from a single colony and grown o/n in LB media. The o/n culture was used to inoculate a 2 liter flask with 500 mL media. This was grown o/n and used to inoculate 15-20 liters of Terrific Broth in a New Brunswick Scientific fermentor. The E. coli were grown at 37° C. to and OD600>1.6. The temperature was dropped to 18° C. and o/n expression was induced with 0.5 mM IPTG. Cells were harvested by centrifugation and frozen at −80° C.
(§2) The frozen cell pellets were thawed by stirring in chilled lysis buffer (0.05 M HEPES, pH 8.0, 0.25 M NaCl, 0.01 M 2-mercaptoethanol, 10% (w/v) glycerol, 0.5% (v/v) protease inhibitor cocktail (Sigma P-8340) at a ratio of 1 L/200 g cells until homogeneous. The thawed suspension was applied to a microfluidizer at 10,000 PSI to disrupt the cells and the whole lysates were clarified by centrifugation at 50,000×g for 90 min, 4° C. Imidazole was added to the clarified lysate to a final concentration of 2.5 mM and the lysate was mixed with 10 mL of Talon resin (Clontech) and the slurry rocked gently overnight at 4° C. The slurry was centrifuged at 1,000×g for 5 min, the supernatant decanted, and the resin suspended in 40 mL of lysis wash buffer (lysis buffer at 0.75 M NaCl). This step was repeated 3× and the resin was transferred to a 2.5 cm glass column. Ten column volumes of wash buffer (0.05 M HEPES, pH 8.0, 0.1 M NaCl, 0.01 M 2-mercaptoethanol, 10% (w/v) glycerol) were applied to the resin followed by 10 column volumes of elution buffer (0.05 M HEPES, pH 8.0, 0.25 M NaCl, 0.01 M 2-mercaptoethanol, 10% (w/v) glycerol, 0.1 M imidazole). Fractions were analyzed by SDS-PAGE and those containing the protein of interest were pooled and concentrated. The concentrated protein was applied to an Amersham Superdex 75 (XK 26/60) column equilibrated in 0.025 M Tris-HCl, pH 7.5, 0.1 M NaCl, 0.01 M 2-mercaptoethanol, 10% (w/v) glycerol. […] Fractions containing the monomeric protein of interest were pooled, concentrated to ˜2 mg/mL, and stored at −80° C.
(§3) The phosphorylation of biotinylated-BAD (S112) peptide by full length recombinant Pim-1, Pim-2, or Pim-3 protein was detected with streptavidin:Allophycocyanin (APC) conjugate and a europium (Eu) labeled antibody directed against phosphorylated-BAD (S112). Excitation of Eu by a high energy laser light (337 nm) leads to a transfer of energy to the APC molecule, and results in an emission at 665 nm. The fluorescence is directly proportional to the amount of phosphorylated BAD peptide present in the reaction.
(In general: In TR-FRET formats the signal depends on donor and acceptor labels being close together.)

The target of a further test is Pim-2 (Homo sapiens (Human), UniProt Q9P1W9). In words: Pim enzyme assay (HTRF, phosphorylation of biotinylated-BAD (S112) peptide), Pim-2. Format: biochemical.
Chain of Pim-2 (Q9P1W9 whole entry): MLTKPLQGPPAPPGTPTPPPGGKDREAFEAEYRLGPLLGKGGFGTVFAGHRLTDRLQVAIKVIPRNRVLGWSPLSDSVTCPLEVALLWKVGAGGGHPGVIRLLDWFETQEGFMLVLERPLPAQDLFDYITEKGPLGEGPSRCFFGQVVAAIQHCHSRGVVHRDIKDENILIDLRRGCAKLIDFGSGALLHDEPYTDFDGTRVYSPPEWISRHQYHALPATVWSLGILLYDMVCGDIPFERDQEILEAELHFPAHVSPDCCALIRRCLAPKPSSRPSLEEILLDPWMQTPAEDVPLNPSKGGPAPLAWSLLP
Text: as §1, §2, §3

Where [1] appears, read: full length recombinant Pim-1, biotinylated-BAD (S112) peptide, HTRF, read-out: Pim_1_IC50.
[2] abbreviates: full length recombinant Pim-2, biotinylated-BAD (S112) peptide, HTRF, read-out: Pim2_IC50.
Where [3] appears, read: full length recombinant Pim-1, biotinylated-BAD (S112) peptide, HTRF, 96-well, read-out: Pim-1 IC50 IP.
Where [4] appears, read: full length recombinant Pim-2, biotinylated-BAD (S112) peptide, HTRF, 96-well, read-out: Pim-2 IC50 IP.

Counter-ions that a name gives are not always drawn. Like-named read-outs stand apart in the source and are kept apart here.

Chain of Pim-1 (P11309 whole entry): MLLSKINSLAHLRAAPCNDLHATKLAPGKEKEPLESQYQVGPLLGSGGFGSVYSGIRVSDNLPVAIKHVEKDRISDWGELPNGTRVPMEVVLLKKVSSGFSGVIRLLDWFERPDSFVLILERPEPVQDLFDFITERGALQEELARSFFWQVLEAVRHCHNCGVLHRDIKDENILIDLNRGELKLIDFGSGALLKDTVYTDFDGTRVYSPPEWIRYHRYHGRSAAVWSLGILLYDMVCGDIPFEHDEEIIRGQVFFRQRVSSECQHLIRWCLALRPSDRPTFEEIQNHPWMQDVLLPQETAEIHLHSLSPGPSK

In the case of `O[C@@H]1CCCN(c2ccncc2Nc2ncc3ccc(-c4ccccc4Cl)nn23)C1` [Example 17, (3R)-1-(3-((2-(2-chlorophenyl)imidazo[1,5-b]pyridazin-7-yl)amino)-4-pyridinyl)-3-piperidinol], the results for the IC50 on Pim-1 (setting [1]) and on Pim-2 (setting [2]) were 192 nM and more than 1000 nM, respectively. Regarding `N[C@H]1CCCN(c2sncc2Nc2ncc3ccc(-c4c(F)cccc4F)nn23)C1` [Example 31, N-(5-((3S)-3-amino-1-piperidinyl)-4-isothiazolyl)-2-(2,6-difluorophenyl)imidazo[1,5-b]pyridazin-7-amine dihydrochloride], the IC50 worked out at 50 nM on Pim-1 (read-out: Pim_1_IC50) and 136 nM on Pim-2 (setting [2]). For `Fc1cccc(F)c1-c1ccc2cnc(Nc3cnccc3N3CCCCC3)n2n1` [Example 70, 2-(2,6-difluorophenyl)-N-(4-(piperidin-1-yl)pyridin-3-yl)imidazo[1,5-b]pyridazin-7-amine bis(2,2,2-trifluoroacetate)], the IC50 at Pim-1 (setting [3]) is 29.6 nM. With `O[C@@H]1CCCN(c2ccncc2Nc2ncc3ccc(-c4nccs4)nn23)C1` [Example 18, (3R)-1-(3-((2-(1,3-thiazol-2-yl)imidazo[1,5-b]pyridazin-7-yl)amino)-4-pyridinyl)-3-piperidinol], the IC50 at Pim-1 (setting [1]) was 99 nM; at Pim-2 (setting [2]), more than 1000 nM. For the molecule `N[C@H]1CCCN(c2ccncc2Nc2nnc3cccnn23)C1` [Example 68, 2,2,2-trifluoroacetate], the IC50 stood at 38.3 nM on Pim-1 (setting [3]) and 73.7 nM at Pim-2 (setting [4]). Consider `O[C@@H]1CCN(c2ccncc2Nc2ncc3ccc(-c4c(F)cccc4F)nn23)C[C@H]1O` (single isomer, unassigned) [Example 34, 1-(3-((2-(2,6-difluorophenyl)imidazo[1,5-b]pyridazin-7-yl)amino)-4-pyridinyl)-3,4-trans-piperidinediol], for which the IC50 at Pim-1 (setting [3]) was 66.9 nM.

As to `N[C@@H]1C=C(c2ccncc2Nc2ncc3ccc(-c4c(F)cccc4F)nn23)CCC1` (single isomer, unassigned) [Example 84, N-(4-(3-aminocyclohex-1-en-1-yl)pyridin-3-yl)-2-(2,6-difluorophenyl)imidazo[1,5-b]pyridazin-7-amine tris(2,2,2-trifluoroacetate)], the IC50 on Pim-1 (setting [3]) turned out to be 30.5 nM. Turning to `Nc1cncc(-c2ccncc2Nc2ncc3ccc(-c4c(F)cccc4F)nn23)c1` [Example 29, N3′-(2-(2,6-difluorophenyl)imidazo[1,5-b]pyridazin-7-yl)-3,4′-bipyridine-3′,5-diamine], the IC50 was 206 nM on Pim-1 (setting [1]) and more than 1000 nM at Pim-2 (setting [2]).

Consider `CC(C)CN(C)c1ccncc1Nc1ncc2ccc(-c3c(F)cccc3F)nn12` [Example 81, N3-(2-(2,6-Difluorophenyl)imidazo[1,5-b]pyridazin-7-yl)-N4-isobutyl-N4-methylpyridine-3,4-diamine], for which the IC50 on Pim-1 (setting [3]) turned out to be 33.8 nM. Consider `CN(C)c1ccncc1Nc1ncc2ccc(-c3c(F)cccc3F)nn12` [Example 26, N^3-(2-(2,6-difluorophenyl)imidazo[1,5-b]pyridazin-7-yl)-N^4,N^4-dimethyl-3,4-pyridinediamine], for which the IC50 is 534 nM on Pim-1 (setting [1]) and more than 1000 nM on Pim-2 (setting [2]). As to `N[C@@H]1CCCN(c2ccncc2Nc2ncc3ccc(-c4c(F)cccc4F)nn23)C1` [Example 69, (R)-N-(4-(3-aminopiperidin-1-yl)pyridin-3-yl)-2-(2,6-difluorophenyl)imidazo[1,5-b]pyridazin-7-amine], the IC50 is 7.6 nM on Pim-1 (setting [3]) and 35.2 nM at Pim-2 (setting [4]). Regarding `Clc1ccccc1-c1ccc2cnc(Nc3cnccc3N3CCNCC3)n2n1` [Example 5, 2-(2-chlorophenyl)-N-(4-(1-piperazinyl)-3-pyridinyl)imidazo[1,5-b]pyridazin-7-amine], the IC50 on Pim-1 (setting [1]) turned out to be 107 nM; at Pim-2 (setting [2]), 640 nM. Regarding `CN[C@H]1CCCN(c2ccncc2Nc2ncc3ccc(-c4c(F)cccc4F)nn23)C1` [Example 59, (S)-2-(2,6-difluorophenyl)-N-(4-(3-(methylamino)piperidin-1-yl)pyridin-3-yl)imidazo[1,5-b]pyridazin-7-amine], the IC50 stood at 2 nM at Pim-1 (setting [3]) and 31 nM on Pim-2 (setting [4]). As for `Clc1ccccc1-c1ccc2cnc(Nc3cnccc3O[C@@H]3CCCNC3)n2n1` [Example 10, 2-(2-chlorophenyl)-N-(4-((3R)-3-piperidinyloxy)-3-pyridinyl)imidazo[1,5-b]pyridazin-7-amine bis(2,2,2-trifluoroacetate)], the IC50 is 409 nM at Pim-1 (setting [1]) and more than 1000 nM at Pim-2 (setting [2]). With `Fc1cccnc1-c1ccc2cnc(Nc3cnccc3N3CCCCC3)n2n1` [Example 71, 2-(3-Fluoropyridin-2-yl)-N-(4-(piperidin-1-yl)pyridin-3-yl)imidazo[1,5-b]pyridazin-7-amine bis(2,2,2-trifluoroacetate)], the IC50 at Pim-1 (setting [3]) was 38.5 nM.

For the molecule `N[C@H]1CCCN(c2ccncc2Nc2ncc3ccc(-c4ncccc4F)nn23)C1` [Example 40, N-(4-((3S)-3-amino-1-piperidinyl)-3-pyridinyl)-2-(3-fluoro-2-pyridinyl)imidazo [1,5-b]pyridazin-7-amine], at Pim-2 (setting [4]), the IC50 stood at 1.1 nM. Regarding `COC(C)CN(C)c1ccncc1Nc1ncc2ccc(-c3c(F)cccc3F)nn12` (stereo not shown) [Example 77, N3-(2-(2,6-difluorophenyl)imidazo[1,5-b]pyridazin-7-yl)-N4-(2-methoxypropyl)-N4-methylpyridine-3,4-diamine], the IC50 on Pim-1 (setting [3]) is 150 nM; on Pim-2 (setting [4]), more than 1000 nM. On to `c1cc(N2CCNCC2)c(Nc2ncc3ccc(-c4nccs4)nn23)cn1` [Example 3, N-(4-(1-piperazinyl)-3-pyridinyl)-2-(1,3-thiazol-2-yl)imidazo[1,5-b]pyridazin-7-amine], for which the IC50 on Pim-1 (setting [1]) was 54 nM; on Pim-2 (setting [2]) it was 154 nM. In the same order, the values of `N[C@H]1CCCN(c2ccncc2Nc2ncc3ccc(Cl)nn23)C1` [Example 24, N-(4-((3S)-3-amino-1-piperidinyl)-3-pyridinyl)-2-chloroimidazo[1,5-b]pyridazin-7-amine] are 25 nM and 99 nM. Consider `N[C@H]1CCCN(c2ncncc2Nc2ncc3ccc(-c4ccccc4F)nn23)C1` [Example 14, (S)-N-(4-(3-aminopiperidin-1-yl)pyrimidin-5-yl)-2-(2-fluorophenyl)imidazo[1,5-b]pyridazin-7-amine], for which the IC50 amounted to 35 nM on Pim-1 (setting [1]) and 160 nM at Pim-2 (setting [2]). In the same order, the values of `O=c1ccc(-c2ccncc2Nc2ncc3ccc(-c4c(F)cccc4F)nn23)c[nH]1` [Example 28, 3′-((2-(2,6-difluorophenyl)imidazo[1,5-b]pyridazin-7-yl)amino)-3,4′-bipyridin-6(1 H)-one] are 38 nM and 281 nM. For the molecule `Cc1oncc1-c1ccncc1Nc1ncc2ccc(-c3c(F)cccc3F)nn12` [Example 102, 2-(2,6-Difluorophenyl)-N-(4-(5-methylisoxazol-4-yl)pyridin-3-yl)imidazo[1,5-b]pyridazin-7-amine bis(2,2,2-trifluoroacetate)], the IC50 at Pim-2 (read-out: Pim-2 IC50 IP) is more than 1000 nM.

For the origin of these results see US9187486B2 (AMGEN INC., priority 2011, dated 2015).
